Like-named read-outs stand apart in the source and are kept apart here.
Key:
zebrafish larvae = test: Zebrafish larval toxicity (NOEC, lethal dose); format: in vivo; conditions: 7 dpf zebrafish larvae; for Lethal dose: up to 5 h treatment; for Highest concentration tested for anti-seizure activity: highest sub-lethal dose
Experimental: Using a 96-well plate, one zebrafish larva (7 dpf) was placed in each well in 100 μL of tank water (TW). 100 μL of each compound (0.5-15 μM) was then added to each well for 12 animals (one row) to give a final volume of 200 […]. A control row was tested for DMSO toxicity effects. […] Each drug was assessed for the no observed effect concentration (NOEC), the highest non-lethal dose resulting in no apparent toxic effects.
Zebrafish (AB strain) were obtained from the Zebrafish International Resource Center (supported by P40 RR012546 from NIH-NCRR). Zebrafish were maintained and crossed according to standard methods (Westerfield, 2000). Fertilized eggs were collected and placed in E3 embryo medium and positioned in an incubator set at 28.5° C. with a 14/10 h light/dark cycle (Kimmel et al., 1995). To determine the lethal dose of each compound, 96-well plates containing one zebrafish (7 days post-fertilization, dpf) per well in 100 μL of tank water were used. 100 μL of each compound (0.5 to 15 μM) was added to each well for 12 animals (one row) for a final volume of 200 μL. One row of larvae was used as DMSO only controls. […] All zebrafish studies were approved by the Medical University of South Carolina Institutional Animal Care and Use Committee (AR #2850) and performed in accordance with the guidelines.
Using a 96-well plate, one zebrafish larva (7 dpf) was placed in each well in 100 μL of tank water. 100 μL of each compound was then added to each well for 12 animals (one row) for a final volume of 200 μL. One row of zebrafish larvae was used as DMSO only controls. […] Toxicity was also measured in the mouse model by the NIH Anticonvulsant Screening Program at the National Institute of Neurological Disorders and Stroke (Stables and Kupferberg, 1997), according to the established NIH experimental procedures. Compounds were delivered into mice by intraperitoneal (i.p.) injection at a dose of 100 mg/kg in sterile 5% DMSO, 95% Neobee (Josey et al., 2013). Acute toxicity was assessed by monitoring the animals for impaired neuromuscular function by placing treated mice on a rod rotating at 6 rpm. […]

PTZ-induced seizures = test: PTZ-induced seizure (swim activity) model in zebrafish larvae; format: in vivo, zebrafish (Danio rerio); conditions: for Seizure suppression: PTZ-treated zebrafish larvae, pretreated 1 hr at NOEC
Experimental: The DanioVision locomotion tracking instrument with Ethovision XT software (Noldus) was used to measure the severity of the seizures by quantifying the locomotor activity of each fish.
In a 48-well plate, one 6-7 dpf larva was added per well. Compounds were given at a sub-lethal dose and treated for 1 h. Three control rows were included—tank water (TW) only, PTZ only and PTZ+VPA (2-4 mM final concentration of VPA). […] After 5 min, the plate was transferred to the Daniovision apparatus and the chamber light was turned on. After 2 min, Ethovision was used to determine the distance traveled (a marker of seizure of activity) by each fish for 15 min (25 frames per second). Velocity, duration of movement, and frequency of movement were also determined from the same recording. After measurement, fish were monitored visually for survival. The distance moved over the recording period with Ethovision XT software (Noldus) was averaged over 8 wells per treatment unless the fish was not detected.
In a 48-well plate, one 7 dpf zebrafish was added per well. Larvae were dosed with each compound at a sub-lethal dose 1 h prior to PTZ treatment. Three control rows were included with each experiment—tank water only control, PTZ only and PTZ+VPA (4 mM final concentration of VPA). […] After 5 min, the plate was transferred to the Daniovision instrument (Noldus Information Technology) and the chamber light was turned on. After 2 min, MediaRecorder (Noldus) was used to record video for 15 min. A small number of videos were acquired 25 frames per second, but the majority of the data was acquired at the frame rate of 60 frames per second. After recording, fish were monitored visually for survival. Ethovision XT software (Noldus) was used to track the fish movement from the video images in order to calculate the total distance traveled over 15 min. […] All experimental comparisons were made between animals from the same clutch.

HT22 cells [1] = test: In vitro neurotoxicity without glutamate (MTS cell viability); format: cell-based, mouse; conditions: for Safety Index TC50/PC50: HT22 cells
Experimental: (§1) The HT22 neuronal cell line is a subclone of HT4, derived from the mouse hippocampus (Morimoto and Koshland, 1990). […] HT22 cells were used. The cells were grown in Dulbecco's Modified Eagle's medium (DMEM/high glucose) supplemented with 10% fetal bovine serum (Hyclone) and 5 mL Antibiotic-Antimycotic (Amphotericin B, Penicillin, and Streptomycin; Invitrogen) at 37° C. in 5% CO2.
(§2) Cell viability was assessed by the ability of the viable cells to metabolize 3-(4,5-dimethylthiazol-2-yl)-5-(3-carboxymethoxyphenyl)-2(4-sulfophenyl)2-H-tetrazolium, inner salt (MTS), as described previously (Cory et al., 1991). The metabolism of tetrazolium salts is often used to measure cellular proliferation, but in the system used here, it has been previously shown to correlate well with cell viability as determined by trypan blue exclusion and colony-forming assays (Davis and Maher, 1994). Briefly, HT-22 cells were seeded onto 96-well plates at 5.0×10^3 cells per well in 75 μL of medium and maintained at 37° C. in 5% CO2 overnight prior to the initiation of experimental treatments. For glutamate toxicity testing, cells were subsequently treated with 25 μL of medium containing glutamate (monosodium glutamate, Sigma, 1 M stock concentration in media, to achieve a final concentration of 10 mM) plus inhibitors (stock in DMSO) and maintained at 37° C. in 5% CO2. For t-BuOOH toxicity testing, cells were subsequently treated with 25 μL of medium containing t-BuOOH (Sigma, 10 mM stock concentration, to achieve a final concentration of 50 μM) plus inhibitors (stock in DMSO) and maintained at 37° C. in 5% CO2 for 3 hours, after which the media was removed, cells washed gently with HBSS, the media replaced with standard culture media, and the cells returned to incubation at 37° C. in 5% CO2. For both glutamate and t-BuOOH treatments, 10 μl of MTS solution was added to each well 24 hrs after initial treatment, and the cells were maintained in growth medium for 2 h at 37° C. Absorbance at 490 nm was subsequently measured by a SpectraMax 190 plate reader (Molecular Devices). The growth medium without cells in the presence of MTS solution was used as solution background and untreated cells were considered the controls. Cell viability was calculated as a percentage compared with untreated controls. EC50 determinations were based on 12-point titrations using GraphPad Prism, and each experiment was repeated at least four times. Morphology of HT22 cells following treatments was determined by phase-contrast microscopy. Digital images of cells grown on cell culture plates were captured at 10× magnification.

[2] = as above; format: cell-based, mouse; conditions: mouse, HT22 cells without glutamate, 24 hrs, MTS, concentration producing 50% toxicity, read-out: Toxicity TC50
Experimental: as §1, §2

HT22 cells [3] = test: In vitro neuroprotective activity against glutamate-induced cell death (MTS cell viability); format: cell-based, mouse; conditions: HT22 cells; for EC50: Mus musculus, HT-22, 10 mM glutamate, 24 hrs, MTS, concentration producing 50% protection, read-out: Protection PC50
Experimental: as §1, §2
The neuroprotective properties of VK and its derivatives were estimated through their protective effects against cell death in mouse neuronal HT22 cells induced by exposure to high levels of glutamate, which recapitulates a hallmark of the extracellular environment found in several neurodegenerative diseases and CNS injuries and is a well established model of neuronal oxidative stress. This investigation began by comparing the relative abilities of the two predominant naturally occurring forms of VK, VK1 and VK2, to prevent oxidative cell death. […] Several 1,4-naphthoquinones with various substitutions at the 2′ and 3′ positions were tested to determine the minimum structural requirement of the system and what the optimum scaffold for future developmental efforts and biological validation would be (FIG. 1B and Table 1). […] Substitution by a single methyl group at the 2′ position (VK3) improves the compound's ability to protect against cell death. Various other simple substituents at the 2′ and 3′ positions give the naphthoquinone structure the ability to prevent oxidative cell death at nanomolar concentrations (Table 1 and FIG. 16).

[4] = HT22 neuronal cells (without glutamate)

Row | SMILES | Lethal dose (zebrafish larvae) [mM] | Highest concentration tested for anti-seizure activity (zebrafish larvae) [mM] | Seizure suppression (PTZ-induced seizures) | Safety Index TC50/PC50 (HT22 cells [1]) | CC50 at 24 h [2, 4] [nM] | EC50 (HT22 cells [3]) [nM] | other results
1 | CCCC(CCC)C(=O)NO [2-propylpentane hydroxamic acid (VPHA), 2-propylpentane hydroxamic acid] | >0.05 | 0.05 | No | – | – | – | –
2 | O=C(NC1=CC(=O)c2ccccc2C1=O)c1ccc(Cl)cc1 [Compound 3i, 4-chloro-N-(1,4-dioxo-1,4-dihydronaphthalen-2-yl)benzamide] | – | – | – | 67 | 27000 | 405 | –
3 | O=C(NC1=CC(=O)c2ccccc2C1=O)c1cccc(Cl)c1 [Compound 3j, 3-chloro-N-(1,4-dioxo-1,4-dihydronaphthalen-2-yl)benzamide] | – | – | – | 203 | > 100000 | 492 | –
4 | O=C(Cc1ccccc1)NC1=CC(=O)c2ccccc2C1=O [Compound 3k, N-(1,4-dioxo-1,4-dihydronaphthalen-2-yl)-2-phenylacetamide] | – | – | – | 49 | – | 658 | CC50 at 24 h [2]: 32000 nM
5 | O=C(Cc1ccc(-c2ccccc2)cc1)NC1=CC(=O)c2ccccc2C1=O [Compound 3l, 2-([1,1′-biphenyl]-4-yl)-N-(1,4-dioxo-1,4-dihydronaphthalen-2-yl)acetamide] | – | – | – | 47 | 42000 | 890 | –
6 | CCNC(=O)NC1=CC(=O)c2ccccc2C1=O [Compound 4a, 1-(1,4-dioxo-1,4-dihydronaphthalen-2-yl)-3-ethylurea] | – | – | – | 28 | – | 177 | CC50 at 24 h [2]: 5000 nM
7 | CC(C)NC(=O)NC1=CC(=O)c2ccccc2C1=O [Compound 4b, 1-(1,4-dioxo-1,4-dihydronaphthalen-2-yl)-3-isopropylurea] | – | – | – | 125 | 8000 | 64 | –
8 | O=C(NC1=CC(=O)c2ccccc2C1=O)Nc1ccccc1 [Compound 4c, 1-(1,4-dioxo-1,4-dihydronaphthalen-2-yl)-3-phenylurea] | – | – | – | 112 | > 100000 | 890 | –
9 | O=C(NCc1ccccc1)NC1=CC(=O)c2ccccc2C1=O [Compound 4d, 1-benzyl-3-(1,4-dioxo-1,4-dihydronaphthalen-2-yl)urea] | – | – | – | 135 | – | 740 | CC50 at 24 h [2]: > 100000 nM
10 | O=C(NO)C(c1ccccc1)c1ccccc1 [Diphenyl acetic hydroxamic acid (dPAHA), diphenyl acetic hydroxamic acid] | 0.01 | 0.0075 | No | – | – | – | –
11 | O=C(CCCCCCC(=O)Nc1ccccc1)NO [Suberoylanilide hydroxamic acid (SAHA), suberoylanilide hydroxamic acid] | >0.015 | 0.015 | No | – | – | – | –
12 | CN1CCc2c(c3ccccc3n2Cc2ccc(C(=O)NO)cc2)C1 [Tubastatin A (Tub A), Tubastatin A] | >0.012 | 0.012 | No | – | – | – | –
13 | CC1=C(C/C=C(\C)CCC[C@H](C)CCC[C@H](C)CCCC(C)C)C(=O)c2ccccc2C1=O [VK1, phylloquinone, reference compound] | – | – | – | – | – | – | cellular toxicity (HT22 cells [1]): neither exhibited any signs of cellular toxicity; protection from oxidative cell death (HT22 cells [3]; glutamate): rescued HT22 cells from oxidative cell death; reduction of seizures (PTZ-induced seizures; PTZ-treated 6 dpf zebrafish, up to 100 mM): neither were found to reduce seizures
